Entries after “also recorded” stand apart in the source; their conditions may differ.
Key:
[1] = system: CLN3^Δex7/8 microglia; assay: IL-1β and TNF-α production by primary microglia (ELISA); type: cell-based, mouse; conditions: 1 hour pre-treatment, then 20 μM ceramide+neuron lysates for 24 hours, CLN3 mutant microglia
Procedure: (§1) FIG. 21. PDE-4 inhibitors attenuate IL-1β and TNF-α production in CLN3^Δex7/8 microglia. Primary microglia were isolated from the brains of CLN3 WT or CLN3 mutant mice, whereupon cells were pre-treated with various concentrations of the phosphodiesterase-4 inhibitor propentofylline (PPF) for 1 hour followed by a combination of molecules known to be elevated in the JNCL brain (20 μM ceramide+neuron lysates) for 24 hours. Conditioned medium was collected at 24 hours post-treatment and IL-1β and TNF-α expression was determined by ELISA. **, p<0.01 for WT versus CLN3 mutant microglia; #, p<0.05; ##, p<0.01; ###, p<0.001 for CLN3 mutant microglia treated with PPF versus vehicle control.
as §1, with “22.” for “21.”, “rolipram (Rol)” for “propentofylline (PPF)”, “p<0.05;” for “p<0.05; ##, p<0.01;”, “Rol” for “PPF”
as §1, with “24.” for “21.”, “attenuate” for “attenuate IL-1β and”, “roflumilast (Rof)” for “propentofylline (PPF)”, “and” for “and IL-1β and”, “microglia.” for “microglia; #, p<0.05; ##, p<0.01; ###, p<0.001 for CLN3 mutant microglia treated with PPF versus vehicle control.”
In these experiments, primary microglia are isolated from the brains of CLN3^Δex7/8 and WT mice^8,25-27. Microglia are exposed to previously optimized concentrations of glutamate (50 μM), ATP (5 mM), ceramide (20-100 μM), neuronal lysate (1:2 or 1:5 dilution), or LPS+ATP as a positive control (100 ng/ml and 5 mM, respectively) for 24 hours, whereupon interleukin-1β (IL-1β) and tumor necrosis factor-α (TNF-α) expression are quantitated by ELISA. These cytokines were selected for analysis because they have been directly implicated in contributing to microglia-induced neuronal cell death^14,28 and also because they intersect with oxidative pathways described herein. […] In addition, CLN3 loss is examined to determine if the loss augments caspase-1 activity, a key inflammasome component that senses oxidative stress and lysosomal damage, resulting in IL-1β cleavage and secretion by microglia^8. Here, CLN3^Δex7/8 and WT microglia are exposed to the same stimuli described above, followed by incubation with the FLICA reagent (Immunochemistry Technologies LLC), a caspase-1 substrate that emits fluorescence when cleaved by the active enzyme^29. […] Indeed, studies support this expectation because caspase-1 activity was elevated in CLN3^Δex7/8 microglia compared to WT cells (FIG. 3).

[2] = system: astrocytes; conditions: cited from earlier work
[3] = system: CLN3^Δex7/8 microglia; assay: Intracellular cAMP in primary microglia; type: cell-based, mouse; conditions: rolipram 10 μM in FIG. 23, 24 hours post-treatment
Procedure: FIG. 23. CLN3^Δex7/8 microglia display reduced intracellular cAMP constitutively, which is enhanced by the PDE-4 inhibitors. Primary microglia were isolated from the brains of CLN3 WT or CLN3 mutant mice, whereupon cells were pre-treated with the phosphodiesterase-4 inhibitor rolipram (Rol; 10 μM) for 1 hour followed by a combination of molecules known to be elevated in the JNCL brain (20 μM ceramide+neuron lysates) for 24 hours. Intracellular cAMP levels were determined at 24 hours post-treatment (*, p<0.05).

Row | Compound | IL-1β production [1] | TNF-α production [1] | IL-1β production ([1]; listed as PPF) | glutamate transporter expression in astrocytes [2] | Intracellular cAMP levels [3]
1 | CCCn1cnc2c1c(=O)n(CCCCC(C)=O)c(=O)n2C [propentofylline] | attenuate | attenuate | significantly reduced IL-1β release | increase glutamate transporter expression in astrocytes | increased
2 | O=C(Nc1c(Cl)cncc1Cl)c1ccc(OC(F)F)c(OCC2CC2)c1 [roflumilast] | inhibit | attenuate |  |  | 
3 | COc1ccc(C2CNC(=O)C2)cc1OC1CCCC1 (stereo not shown) [rolipram] | attenuate; also recorded: significantly reduced IL-1β release | attenuate |  |  | enhanced; also recorded: increased
